The record followed here is ChEMBL document CHEMBL3621071, “Novel isoniazid-amidoether derivatives: Synthesis, characterization and antimycobacterial activity evaluation” (Medchemcomm, 2015).

The test system of data set [1] is THP-1. Nature of the data set: Cytotoxic activity against human THP1 cells. The format is cell-based.
The subject of data set [2] is Mycobacterium tuberculosis. Nature of the data set: Antimycobacterial activity against Mycobacterium tuberculosis H37Rv ATCC 27294 assessed as inhibition of bacterial growth incubated for 14 days by inverted plate reader based macroscopy. The data set is classed as functional. The conditions noted are these: H37Rv ATCC 27294, 336 h.
Data set [3] relates to Mycobacterium tuberculosis. Nature of the data set: Antimycobacterial activity against Mycobacterium tuberculosis H37Rv infected in Balb/c mouse assessed as reduction in spleen bacterial load at 50 mg/kg, po dosed once daily 5 days per week for 10 weeks. The format is functional.
Data set [4] concerns Mycobacterium tuberculosis. Nature of the data set: Antimycobacterial activity against Mycobacterium tuberculosis H37Rv infected in Balb/c mouse assessed as reduction in spleen bacterial load at 100 mg/kg, po dosed once daily 5 days per week for 10 weeks. The data set is classed as functional.
Data set [5] relates to Mycobacterium tuberculosis. Nature of the data set: Antimycobacterial activity against Mycobacterium tuberculosis H37Rv infected in Balb/c mouse assessed as reduction in lung bacterial load at 50 mg/kg, po dosed once daily 5 days per week for 3 to 10 weeks. The format is functional, organism-based.
For data set [6], the system named is Mycobacterium tuberculosis. Nature of the data set: Antimycobacterial activity against Mycobacterium tuberculosis H37Rv infected in Balb/c mouse assessed as reduction in lung bacterial load at 100 mg/kg, po dosed once daily 5 days per week for 3 to 10 weeks. The format is functional, organism-based.
The subject of data set [7] is Mycobacterium tuberculosis. Nature of the data set: Antimycobacterial activity against Mycobacterium tuberculosis H37Rv infected in Balb/c mouse assessed as reduction in spleen bacterial load at 50 mg/kg, po dosed once daily 5 days per week for 3 weeks. The format is functional.
The subject of data set [8] is Mycobacterium tuberculosis. Nature of the data set: Antimycobacterial activity against Mycobacterium tuberculosis H37Rv infected in Balb/c mouse assessed as reduction in spleen bacterial load at 100 mg/kg, po dosed once daily 5 days per week for 3 weeks. The data set is classed as functional.
Data set [9] deals with Mycobacterium tuberculosis. Nature of the data set: Antimycobacterial activity against Mycobacterium tuberculosis H37Rv infected in Balb/c mouse assessed as reduction in spleen bacterial load at 25 mg/kg, po dosed once daily 5 days per week for 10 weeks. The format is functional.
Data set [10] deals with Mycobacterium tuberculosis. Nature of the data set: Antimycobacterial activity against Mycobacterium tuberculosis H37Rv infected in Balb/c mouse assessed as reduction in spleen bacterial load at 50 mg/kg, po dosed once daily 5 days per week for 6 weeks. The format is functional.
Data set [11] has as its system Mycobacterium tuberculosis. Nature of the data set: Antimycobacterial activity against Mycobacterium tuberculosis H37Rv infected in Balb/c mouse assessed as reduction in spleen bacterial load at 25 mg/kg, po dosed once daily 5 days per week for 3 weeks. The format is functional.
Data set [12] deals with Mycobacterium tuberculosis. Nature of the data set: Antimycobacterial activity against Mycobacterium tuberculosis H37Rv infected in Balb/c mouse assessed as reduction in lung bacterial load at 25 mg/kg, po dosed once daily 5 days per week for 3 to 10 weeks. The data set is classed as functional, organism-based.
The subject of data set [13] is Mycobacterium tuberculosis. Nature of the data set: Antimycobacterial activity against Mycobacterium tuberculosis H37Rv infected in Balb/c mouse assessed as reduction in lung bacterial load at 25 mg/kg, po dosed once daily 5 days per week for 3 weeks. The format is functional.
In data set [14] the test system is Mycobacterium tuberculosis. Nature of the data set: Antimycobacterial activity against Mycobacterium tuberculosis H37Rv infected in Balb/c mouse assessed as reduction in lung bacterial load at 25 mg/kg, po dosed once daily 5 days per week for 6 weeks. The format is functional.
In data set [15] the test system is Mycobacterium tuberculosis. Nature of the data set: Antimycobacterial activity against Mycobacterium tuberculosis H37Rv infected in Balb/c mouse assessed as reduction in lung bacterial load at 25 mg/kg, po dosed once daily 5 days per week for 10 weeks. The data set is classed as functional.
The test system of data set [16] is Mycobacterium tuberculosis. Nature of the data set: Antimycobacterial activity against Mycobacterium tuberculosis H37Rv infected in Balb/c mouse assessed as reduction in spleen bacterial load at 25 mg/kg, po dosed once daily 5 days per week for 6 weeks. The format is functional, organism-based.
In data set [17] the test system is Mycobacterium tuberculosis. Nature of the data set: Antimycobacterial activity against Mycobacterium tuberculosis H37Rv infected in Balb/c mouse assessed as reduction in spleen bacterial load at 10 mg/kg, po dosed once daily 5 days per week for 3 weeks. The format is functional.
The test system of data set [18] is Mycobacterium tuberculosis. Nature of the data set: Antimycobacterial activity against Mycobacterium tuberculosis H37Rv infected in Balb/c mouse assessed as reduction in lung bacterial load at 10 mg/kg, po dosed once daily 5 days per week for 3 weeks. The format is functional.
For data set [19], the system named is Mycobacterium tuberculosis. Nature of the data set: Antimycobacterial activity against Mycobacterium tuberculosis H37Rv infected in Balb/c mouse assessed as reduction in lung bacterial load at 10 mg/kg, po dosed once daily 5 days per week for 10. The data set is classed as functional, organism-based.
The subject of data set [20] is Mycobacterium tuberculosis. Nature of the data set: Antimycobacterial activity against Mycobacterium tuberculosis H37Rv infected in Balb/c mouse assessed as reduction in spleen bacterial load at 10 mg/kg, po dosed once daily 5 days per week for 6 weeks. The data set is classed as functional.
Data set [21] relates to Mycobacterium tuberculosis. Nature of the data set: Antimycobacterial activity against Mycobacterium tuberculosis H37Rv infected in Balb/c mouse assessed as reduction in spleen bacterial load at 10 mg/kg, po dosed once daily 5 days per week for 10 weeks. The data set is classed as functional, organism-based.
The test system of data set [22] is Mycobacterium tuberculosis. Nature of the data set: Antimycobacterial activity against Mycobacterium tuberculosis H37Rv infected in Balb/c mouse assessed as reduction in lung bacterial load at 10 mg/kg, po dosed once daily 5 days per week for 6. The data set is classed as functional.

Values after ≈ are worked out from the molar mass of the structure shown. Active and inactive are the calls of the source. No cut-off for these calls is given here.

As usually defined, the MIC99 is the lowest concentration that inhibits either 99% of growth or 99% of the strains tested, depending on the study. Take `COc1ccc(NC(=O)COc2ccc(/C=N/NC(=O)c3ccncc3)cc2)cc1`: the Activity in data set [1] was greater than 50 µM. The MIC99 in data set [2] came to 0.39 µM (≈ 0.158 µg/mL).
In the same order, the values of `O=C(COc1ccc(/C=N/NC(=O)c2ccncc2)cc1)Nc1cccnc1` are greater than 50 µM and 0.39 µM (≈ 0.146 µg/mL).
In the case of `O=C(COc1ccc(/C=N/NC(=O)c2ccncc2)cc1)Nc1cccc(Br)c1`, the Activity in data set [1] was greater than 50 µM. In [2], the MIC99 amounted to 0.78 µM (≈ 0.354 µg/mL).
The corresponding values for `O=C(COc1ccc(/C=N/NC(=O)c2ccncc2)cc1)Nc1ccccc1F` are greater than 50 µM and 0.78 µM (≈ 0.306 µg/mL).
Take `O=C(COc1ccc(/C=N/NC(=O)c2ccncc2)cc1)Nc1ccccc1`: the Activity in [1] was greater than 50 µM. In addition, in data set [2], the MIC99 is 0.78 µM (≈ 0.292 µg/mL).
For the molecule `Cc1ccc(NC(=O)COc2ccc(/C=N/NC(=O)c3ccncc3)cc2)cc1`, the Activity in data set [1] is greater than 50 µM; in data set [3], 2.14 log10CFU; in [4], 3.11 log10CFU; in data set [7], 1.4 log10CFU; in [8], 1.77 log10CFU; in [9], 1.23 log10CFU. The values for the Activity in data set [10] and in [11] were 2.28 log10CFU and 1.19 log10CFU, respectively. The outcome in data set [5], in data set [6] and in data set [12] was inactive. The MIC99 in data set [2] is 0.39 µM (≈ 0.151 µg/mL).
For the molecule `O=C(COc1ccc(/C=N/NC(=O)c2ccncc2)cc1)Nc1ccccc1Cl`, in [1], the Activity was greater than 50 µM. For the same molecule, the MIC99 in data set [2] was 0.78 µM (≈ 0.319 µg/mL).
With `NNC(=O)c1ccncc1` [ISONIAZID], the Activity in data set [13] was found to be 1.22 log10CFU; in data set [14], 2.59 log10CFU; in data set [15], 3.38 log10CFU; in [11], 2.66 log10CFU. In addition, the outcome in data set [9] and in data set [16] was Active. Besides, the MIC99 in data set [2] was found to be 0.39 µM (≈ 0.0535 µg/mL).
Molecule `O=C(COc1ccc(/C=N/NC(=O)c2ccncc2)cc1)Nc1cccc(Cl)c1` came in with an Activity in data set [1] greater than 50 µM. In addition, the MIC99 in data set [2] came out at 0.78 µM (≈ 0.319 µg/mL).
With `CO[C@H]1/C=C/O[C@@]2(C)Oc3c(C)c(O)c4c(O)c(c(/C=N/N5CCN(C)CC5)c(O)c4c3C2=O)NC(=O)/C(C)=C\C=C\[C@H](C)[C@H](O)[C@@H](C)[C@@H](O)[C@@H](C)[C@H](OC(C)=O)[C@@H]1C` [RIFAMPIN], the Activity in data set [17] turned out to be 1.76 log10CFU; in [18], 1.93 log10CFU; in data set [20], 3.31 log10CFU; in data set [22] it was 2.8 log10CFU. Besides, the outcome in data set [19] and in data set [21] was Active.
In data set [1], `O=C(COc1ccc(/C=N/NC(=O)c2ccncc2)cc1)Nc1ccccn1` had an Activity greater than 50 µM. The MIC99 in data set [2] worked out at 0.78 µM (≈ 0.293 µg/mL).
The molecule `CCc1ccc(NC(=O)COc2ccc(/C=N/NC(=O)c3ccncc3)cc2)cc1` yielded an Activity in [1] greater than 50 µM. For the same molecule, the MIC99 in [2] turned out to be 0.39 µM (≈ 0.157 µg/mL).
The molecule `O=C(COc1ccc(/C=N/NC(=O)c2ccncc2)cc1)Nc1ccc(Br)cc1` yielded an Activity in data set [1] greater than 50 µM. Further, the MIC99 in data set [2] came out at 0.78 µM (≈ 0.354 µg/mL).
The molecule `O=C(COc1ccc(/C=N/NC(=O)c2ccncc2)cc1)NCc1ccccc1` showed an Activity in [1] greater than 50 µM. Further, the MIC99 in data set [2] amounted to 0.78 µM (≈ 0.303 µg/mL).
The molecule `O=C(COc1ccc(/C=N/NC(=O)c2ccncc2)cc1)Nc1ccccc1Br` registered an Activity in [1] greater than 50 µM. The MIC99 in data set [2] worked out at 0.78 µM (≈ 0.354 µg/mL).
The corresponding values for `COc1ccc(CNC(=O)COc2ccc(/C=N/NC(=O)c3ccncc3)cc2)cc1` are greater than 50 µM and 0.39 µM (≈ 0.163 µg/mL).
With `O=C(COc1ccc(/C=N/NC(=O)c2ccncc2)cc1)Nc1cccc(F)c1`, the Activity in data set [1] is greater than 50 µM. Further, the MIC99 in data set [2] was 0.78 µM (≈ 0.306 µg/mL).
On to `O=C(COc1ccc(/C=N/NC(=O)c2ccncc2)cc1)Nc1ccc(F)cc1`, for which the Activity in data set [1] was greater than 50 µM. Besides, the MIC99 in [2] was found to be 0.78 µM (≈ 0.306 µg/mL).
The corresponding values for `CC(C)c1ccc(NC(=O)COc2ccc(/C=N/NC(=O)c3ccncc3)cc2)cc1` are greater than 50 µM and 0.39 µM (≈ 0.162 µg/mL).
In [1], `O=C(COc1ccc(/C=N/NC(=O)c2ccncc2)cc1)Nc1cccc2ccccc12` showed an Activity greater than 50 µM. Further, in data set [2], the MIC99 was 1.56 µM (≈ 0.662 µg/mL).
Molecule `O=C(COc1ccc(/C=N/NC(=O)c2ccncc2)cc1)Nc1ccc([N+](=O)[O-])cc1` had an Activity in data set [1] greater than 50 µM. In addition, the MIC99 in data set [2] was 1.56 µM (≈ 0.654 µg/mL).
Regarding `O=C(COc1ccc(/C=N/NC(=O)c2ccncc2)cc1)Nc1ccc(Cl)cc1`, the Activity in data set [1] is greater than 50 µM. Further, the MIC99 in [2] was found to be 0.39 µM (≈ 0.159 µg/mL).
As to `Cc1ccc(CNC(=O)COc2ccc(/C=N/NC(=O)c3ccncc3)cc2)cc1`, in [1], the Activity is greater than 50 µM. Besides, in [2], the MIC99 amounted to 0.39 µM (≈ 0.157 µg/mL).
The corresponding values for `O=C(COc1ccc(/C=N/NC(=O)c2ccncc2)cc1)NCCc1ccccc1` are greater than 50 µM and 0.78 µM (≈ 0.314 µg/mL).
